{"source": "patent US20230139171A1", "about": "(SITA Information Networking Computing UK Limited, priority 2019, published 2023)", "key": {"human TLR8": {"target": "T1, human TLR8 (Homo sapiens, UniProt Q9NR97)", "T1 construct": "host or cells: HEK-Blue cells", "T1 sequence (Q9NR97 27-1041)": "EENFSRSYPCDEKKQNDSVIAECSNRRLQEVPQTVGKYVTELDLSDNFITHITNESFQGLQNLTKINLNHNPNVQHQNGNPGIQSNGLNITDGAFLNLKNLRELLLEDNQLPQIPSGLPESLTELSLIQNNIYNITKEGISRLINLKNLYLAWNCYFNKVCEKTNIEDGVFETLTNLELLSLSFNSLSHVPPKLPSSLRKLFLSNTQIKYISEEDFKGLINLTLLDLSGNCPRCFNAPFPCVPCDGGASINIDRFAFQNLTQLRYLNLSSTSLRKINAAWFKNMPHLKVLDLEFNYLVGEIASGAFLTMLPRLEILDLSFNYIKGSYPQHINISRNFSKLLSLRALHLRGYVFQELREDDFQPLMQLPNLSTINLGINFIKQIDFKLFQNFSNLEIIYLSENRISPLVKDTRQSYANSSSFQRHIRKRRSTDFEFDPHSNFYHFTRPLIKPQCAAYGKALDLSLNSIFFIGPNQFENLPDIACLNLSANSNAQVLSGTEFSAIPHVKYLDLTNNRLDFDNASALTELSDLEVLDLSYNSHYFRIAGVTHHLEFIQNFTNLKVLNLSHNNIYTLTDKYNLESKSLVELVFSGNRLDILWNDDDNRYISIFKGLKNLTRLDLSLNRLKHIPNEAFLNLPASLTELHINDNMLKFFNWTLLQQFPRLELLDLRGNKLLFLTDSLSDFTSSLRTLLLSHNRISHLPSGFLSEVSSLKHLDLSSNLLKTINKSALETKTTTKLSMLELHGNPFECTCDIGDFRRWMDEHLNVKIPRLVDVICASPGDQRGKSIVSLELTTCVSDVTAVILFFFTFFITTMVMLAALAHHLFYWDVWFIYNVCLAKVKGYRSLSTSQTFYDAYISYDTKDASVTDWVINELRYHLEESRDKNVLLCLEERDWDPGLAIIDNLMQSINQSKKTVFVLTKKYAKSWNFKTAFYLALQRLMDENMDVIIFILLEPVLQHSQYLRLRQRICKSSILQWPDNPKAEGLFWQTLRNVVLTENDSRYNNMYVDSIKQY", "test": "TLR8 inhibition reporter assay (HEK-Blue cells, SEAP reporter, R848 stimulation)", "format": "cell-based", "details": "HEK-Blue cells overexpressing human TLR8, SEAP reporter, R848 15.9 μM; read-out: TLR8 IC50", "method_in_brief": "(§1)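 Dose–response from 0.05 nM to 50 μM was run in HEK-Blue human TLR7, TLR8 and TLR9 reporter cells. After 30 min at room temperature with compound, ligand was added (TLR7 gardiquimod 7.5 μM; TLR8 R848 15.9 μM; TLR9 ODN2006 5 nM) and SEAP measured next day, at 22 h.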"}, "human TLR7": {"target": "T2, human TLR7 (Homo sapiens, UniProt Q9NYK1)", "T2 construct": "host or cells: HEK-Blue cells", "T2 sequence (Q9NYK1 27-1049)": "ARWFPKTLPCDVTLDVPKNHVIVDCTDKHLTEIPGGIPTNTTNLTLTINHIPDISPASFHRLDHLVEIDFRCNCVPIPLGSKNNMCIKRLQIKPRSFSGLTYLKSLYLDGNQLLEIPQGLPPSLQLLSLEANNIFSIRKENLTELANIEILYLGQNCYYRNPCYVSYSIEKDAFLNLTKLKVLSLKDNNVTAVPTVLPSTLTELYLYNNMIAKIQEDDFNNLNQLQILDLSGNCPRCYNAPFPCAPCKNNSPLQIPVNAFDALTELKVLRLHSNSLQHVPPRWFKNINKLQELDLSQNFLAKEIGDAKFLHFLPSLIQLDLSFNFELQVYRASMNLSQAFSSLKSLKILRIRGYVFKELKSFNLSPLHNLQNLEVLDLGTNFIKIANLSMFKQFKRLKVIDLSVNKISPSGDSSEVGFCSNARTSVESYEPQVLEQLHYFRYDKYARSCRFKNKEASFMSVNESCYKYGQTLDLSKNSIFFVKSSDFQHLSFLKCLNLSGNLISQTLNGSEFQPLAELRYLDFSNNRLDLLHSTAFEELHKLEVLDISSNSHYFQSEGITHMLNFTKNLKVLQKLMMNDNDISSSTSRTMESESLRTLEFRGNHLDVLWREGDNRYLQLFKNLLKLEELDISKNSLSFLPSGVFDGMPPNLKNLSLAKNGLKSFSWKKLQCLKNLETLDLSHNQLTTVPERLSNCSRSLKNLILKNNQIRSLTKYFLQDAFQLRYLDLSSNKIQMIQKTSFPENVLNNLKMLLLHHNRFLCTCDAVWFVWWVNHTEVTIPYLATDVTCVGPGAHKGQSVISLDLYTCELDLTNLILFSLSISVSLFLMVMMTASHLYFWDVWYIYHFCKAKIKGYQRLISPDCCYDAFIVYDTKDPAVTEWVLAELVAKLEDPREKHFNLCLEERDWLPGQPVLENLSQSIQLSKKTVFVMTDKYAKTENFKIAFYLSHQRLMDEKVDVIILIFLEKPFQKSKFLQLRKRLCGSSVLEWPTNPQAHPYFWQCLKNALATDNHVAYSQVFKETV", "test": "TLR7 inhibition reporter assay (HEK-Blue cells, SEAP reporter, gardiquimod stimulation)", "format": "cell-based", "details": "HEK-Blue cells overexpressing human TLR7, SEAP reporter, gardiquimod 7.5 μM; read-out: TLR7 IC50", "method_in_brief": "as §1"}}}
{"molecule": "COc1cc(-c2[nH]c3sc(C4CCC(NC5COC5)CC4)nc3c2C(C)C)cn2ncnc12", "note": "(single isomer, unassigned) [Example 65, N-(4-(6-isopropyl-5-(8-methoxy-[1,2,4]triazolo[1,5-a]pyridin-6-yl)-4H-pyrrolo[3,2-d]thiazol-2-yl)cyclohexyl)oxetan-3-amine]", "values": [{"measurement": "IC50", "setting": "human TLR8", "result": 1.37, "unit": "nM"}, {"measurement": "IC50", "setting": "human TLR7", "result": 0.55, "unit": "nM"}]}
